# Assay results as given in ChEMBL document CHEMBL1201862, “PubChem BioAssay data set” (2004).
# Active and inactive are the calls of the source.
# Legend:
# [1] = biological target: T1, High affinity choline transporter 1 (Homo sapiens, UniProt Q9GZV3); test: CHT inhibitors, dose response, cell-based, 5-point CRC, membrane potential dye (AID 504840); assay type: functional
# T1 sequence (Q9GZV3 whole entry): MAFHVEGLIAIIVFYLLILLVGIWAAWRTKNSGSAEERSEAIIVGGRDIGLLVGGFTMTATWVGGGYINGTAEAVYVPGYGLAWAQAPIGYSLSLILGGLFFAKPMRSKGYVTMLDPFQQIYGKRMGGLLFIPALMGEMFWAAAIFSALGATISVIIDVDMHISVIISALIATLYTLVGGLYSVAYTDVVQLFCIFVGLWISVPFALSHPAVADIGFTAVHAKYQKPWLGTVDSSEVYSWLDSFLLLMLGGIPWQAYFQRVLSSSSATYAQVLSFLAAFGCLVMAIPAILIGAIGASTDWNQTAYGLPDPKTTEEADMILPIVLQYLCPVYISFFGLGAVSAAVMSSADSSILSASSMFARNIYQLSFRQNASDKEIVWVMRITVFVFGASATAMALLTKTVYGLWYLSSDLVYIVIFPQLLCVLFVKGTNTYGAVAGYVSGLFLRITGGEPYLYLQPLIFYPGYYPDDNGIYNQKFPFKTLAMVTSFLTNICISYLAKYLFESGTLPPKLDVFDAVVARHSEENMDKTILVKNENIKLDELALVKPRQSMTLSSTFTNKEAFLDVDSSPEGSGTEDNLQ
# [2] = HEp-2 cell cytotoxicity, dose response, cytotoxicity control for RSV inhibitor project, HTS (AID 2410); assay type: functional; conditions: human respiratory syncytial virus
# [3] = biological target: T1, High affinity choline transporter 1; test: CHT inhibitors, dose response, cell-based, 10-point CRC, membrane potential dye (AID 588401); assay type: functional;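 also: membrane potential dye fluorescence of choline-evoked depolarization via CHT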
# Interleukin-8 = biological target: T2, Interleukin-8 (Homo sapiens, UniProt P10145); test: Dose Response confirmation of uHTS small molecule hits for cystic fibrosis induced NFkb Inhibitors in a PAF-induced IL8 counterscreen.; assay type: functional; conditions: read-out: IC50_Mean
# T2 sequence (P10145 whole entry): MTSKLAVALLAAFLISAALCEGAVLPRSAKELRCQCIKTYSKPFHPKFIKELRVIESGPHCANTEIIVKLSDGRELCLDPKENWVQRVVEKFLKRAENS
# [4] = HEK293T cytotoxicity, dose response, cytotoxicity control for miR-122 modulator project, cell-based, inhibitor set, cherry-pick, set 2 (AID 720697); assay type: functional
# [5] = HeLa cell cytotoxicity, dose response, cytotoxicity control for MgcRacGAP inhibitor project (AID 624300); assay type: functional
# [6] = biological target: Heat shock protein HSP 90-alpha (Homo sapiens, UniProt P07900); assay type: functional, organism-based
# Beta Lactamase = Beta Lactamase (Pseudomonas aeruginosa, UniProt Q932Y6); test: beta-lactamase reporter inhibitor potency, dose response, artefact control for TLR9-MyD88 binding inhibitor project, BLA reporter cells, FRET fluorescence (AID 588341); assay type: cell-based;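 also: cell based assay in CHO-K1 cells stably expressing beta-lactamase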
# CHO = test: cytotoxicity in TLR9-MyD88 CHO cells, dose response, cytotoxicity control for TLR9-MyD88 binding inhibitor project, cell-based, luminescence (AID 588339); assay type: functional, hamster; conditions: Cricetulus griseus;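 also: CHO cells stably coexpressing TLR9 and MyD88 fusions from primary screen; compound exposure lasted 48 hours before viability readout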
# [7] = biological target: T3, Zinc finger protein mex-5 (Caenorhabditis elegans, UniProt Q9XUB2); test: MEX-5/TCR-2 RNA interaction inhibitors, dose response, biochemical, C. elegans, fluorescence polarization (AID 1960)
# T3 sequence (Q9XUB2 whole entry): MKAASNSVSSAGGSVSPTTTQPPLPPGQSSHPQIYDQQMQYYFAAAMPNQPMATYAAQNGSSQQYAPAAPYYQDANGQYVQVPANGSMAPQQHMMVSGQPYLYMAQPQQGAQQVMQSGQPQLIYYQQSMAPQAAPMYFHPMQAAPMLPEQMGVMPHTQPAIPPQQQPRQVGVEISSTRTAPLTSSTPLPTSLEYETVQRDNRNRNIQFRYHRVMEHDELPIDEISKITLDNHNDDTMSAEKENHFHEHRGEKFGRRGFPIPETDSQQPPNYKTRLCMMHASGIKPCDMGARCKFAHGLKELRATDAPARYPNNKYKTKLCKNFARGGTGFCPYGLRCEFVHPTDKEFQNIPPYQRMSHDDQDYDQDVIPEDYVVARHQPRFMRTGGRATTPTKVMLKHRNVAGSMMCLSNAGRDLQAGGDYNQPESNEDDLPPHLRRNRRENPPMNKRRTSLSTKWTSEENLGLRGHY
# [8] = biological target: T4, RNA-binding protein pos-1 (Caenorhabditis elegans, UniProt G5EF15); test: inhibitors of POS-1/mex-3 RNA binding, dose response, biochemical, fluorescence polarization (AID 1964);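 also: purified POS-1 fused to maltose binding protein made in E. coli; potency of compounds blocking POS-1 binding to fluorescent RNA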
# T4 sequence (G5EF15 whole entry): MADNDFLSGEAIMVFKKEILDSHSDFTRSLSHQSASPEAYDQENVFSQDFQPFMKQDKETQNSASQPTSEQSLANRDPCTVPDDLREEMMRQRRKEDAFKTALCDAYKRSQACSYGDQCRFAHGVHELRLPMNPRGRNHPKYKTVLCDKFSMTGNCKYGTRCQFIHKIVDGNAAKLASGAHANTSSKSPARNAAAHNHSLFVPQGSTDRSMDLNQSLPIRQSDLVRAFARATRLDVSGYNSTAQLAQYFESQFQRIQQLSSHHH
# [9] = biological target: T5, Rac GTPase-activating protein 1 (Homo sapiens, UniProt Q9H0H5); test: MgcRacGAP GTPase-activating activity inhibitors, confirmation, biochemical, ADP Hunter fluorescence, primary and confirmatory (AID 624330); assay type: functional
# T5 sequence (Q9H0H5 whole entry): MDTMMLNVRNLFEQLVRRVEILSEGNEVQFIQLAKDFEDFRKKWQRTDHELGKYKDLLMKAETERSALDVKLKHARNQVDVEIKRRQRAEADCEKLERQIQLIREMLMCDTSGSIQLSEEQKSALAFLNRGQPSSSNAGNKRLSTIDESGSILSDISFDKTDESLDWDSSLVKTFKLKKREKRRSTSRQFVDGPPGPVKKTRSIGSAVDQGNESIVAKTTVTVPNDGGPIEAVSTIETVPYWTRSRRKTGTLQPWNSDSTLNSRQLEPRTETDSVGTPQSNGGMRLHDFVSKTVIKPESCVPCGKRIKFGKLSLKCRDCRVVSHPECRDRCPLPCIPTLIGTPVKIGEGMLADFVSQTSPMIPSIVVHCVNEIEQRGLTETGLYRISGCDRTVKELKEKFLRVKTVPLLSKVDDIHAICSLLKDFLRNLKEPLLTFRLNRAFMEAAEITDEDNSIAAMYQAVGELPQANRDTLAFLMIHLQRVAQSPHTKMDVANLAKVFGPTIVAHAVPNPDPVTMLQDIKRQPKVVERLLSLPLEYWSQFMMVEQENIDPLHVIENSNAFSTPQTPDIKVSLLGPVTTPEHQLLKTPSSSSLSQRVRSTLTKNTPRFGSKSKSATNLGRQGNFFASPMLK
# Genome polyprotein = Genome polyprotein (dengue virus type 2, UniProt P29990); test: Dengue-2 NS5 methyltransferase inhibitors, primary screen, biochemical, confirmation dose response (AID 588689); assay type: functional
# [10] = Luminescence Cell-Based Dose Retest to Confirm Inhibitors of Cancer Stem Cells. [Related pubchem assays (depositor defined):AID2717, AID2721]; assay type: functional; conditions: Homo sapiens
# Cysteine protease ATG4B = biological target: T6, Cysteine protease ATG4B (Homo sapiens, UniProt Q9Y4P1); assay type: functional;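 also: Fluorescence-based dose-response confirmation assay measuring inhibition of ATG4B activity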
# T6 sequence (Q9Y4P1 whole entry): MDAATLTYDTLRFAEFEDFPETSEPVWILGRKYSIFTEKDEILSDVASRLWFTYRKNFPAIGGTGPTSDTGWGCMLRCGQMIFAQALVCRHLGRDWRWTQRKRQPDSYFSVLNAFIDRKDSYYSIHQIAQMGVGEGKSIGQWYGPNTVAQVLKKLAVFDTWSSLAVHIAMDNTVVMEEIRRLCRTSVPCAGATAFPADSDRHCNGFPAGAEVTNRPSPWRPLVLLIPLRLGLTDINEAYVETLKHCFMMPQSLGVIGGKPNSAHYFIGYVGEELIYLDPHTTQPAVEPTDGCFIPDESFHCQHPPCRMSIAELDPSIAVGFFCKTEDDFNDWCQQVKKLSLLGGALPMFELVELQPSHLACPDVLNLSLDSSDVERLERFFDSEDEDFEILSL
# Phospholipase A2 = Phospholipase A2 (Homo sapiens, UniProt P04054); assay type: functional;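 also: confirmatory dose-response counterscreen on phospholipase A2, testing hits that came from an ultra-high-throughput screen for ATG4B inhibitors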
# [11] = Counterscreen for inhibitors of Trypanosoma brucei methionyl tRNA synthetase (MetRS): Luminescence-based cell-based high throughput dose response assay to identify compounds that are cytotoxic to Jurkat human T lymphocyte cells.; assay type: functional
# [12] = biological target: T7, DNA repair and recombination protein RAD54-like (Homo sapiens, UniProt Q92698); test: inhibitors of human RAD54 branch migration, confirmation, biochemical, fluorescence, cherry-picked samples, dose series (AID 651657); assay type: functional
# T7 sequence (Q92698 whole entry): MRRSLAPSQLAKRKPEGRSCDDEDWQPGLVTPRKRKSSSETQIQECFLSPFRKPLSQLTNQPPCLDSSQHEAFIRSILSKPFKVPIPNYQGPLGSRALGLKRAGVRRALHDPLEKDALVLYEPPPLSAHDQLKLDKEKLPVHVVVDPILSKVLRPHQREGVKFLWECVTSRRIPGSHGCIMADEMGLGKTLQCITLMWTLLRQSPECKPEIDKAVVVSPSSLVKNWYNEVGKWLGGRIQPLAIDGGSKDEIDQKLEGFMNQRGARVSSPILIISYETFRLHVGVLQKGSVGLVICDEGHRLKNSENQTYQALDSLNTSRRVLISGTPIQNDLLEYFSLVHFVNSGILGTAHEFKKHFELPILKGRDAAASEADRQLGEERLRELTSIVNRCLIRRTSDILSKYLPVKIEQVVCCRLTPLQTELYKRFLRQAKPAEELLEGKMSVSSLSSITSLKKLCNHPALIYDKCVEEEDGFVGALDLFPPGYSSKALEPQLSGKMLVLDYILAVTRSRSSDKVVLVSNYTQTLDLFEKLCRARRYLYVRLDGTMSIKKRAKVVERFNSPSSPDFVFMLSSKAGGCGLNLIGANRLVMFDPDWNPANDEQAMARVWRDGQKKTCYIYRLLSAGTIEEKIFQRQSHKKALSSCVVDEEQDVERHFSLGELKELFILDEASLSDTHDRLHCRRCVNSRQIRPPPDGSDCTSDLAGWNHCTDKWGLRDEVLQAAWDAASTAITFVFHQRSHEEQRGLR
# [13] = biological target: T8, DNA repair protein RAD52 homolog (Homo sapiens, UniProt P43351); assay type: functional, biochemical
# T8 sequence (P43351 whole entry): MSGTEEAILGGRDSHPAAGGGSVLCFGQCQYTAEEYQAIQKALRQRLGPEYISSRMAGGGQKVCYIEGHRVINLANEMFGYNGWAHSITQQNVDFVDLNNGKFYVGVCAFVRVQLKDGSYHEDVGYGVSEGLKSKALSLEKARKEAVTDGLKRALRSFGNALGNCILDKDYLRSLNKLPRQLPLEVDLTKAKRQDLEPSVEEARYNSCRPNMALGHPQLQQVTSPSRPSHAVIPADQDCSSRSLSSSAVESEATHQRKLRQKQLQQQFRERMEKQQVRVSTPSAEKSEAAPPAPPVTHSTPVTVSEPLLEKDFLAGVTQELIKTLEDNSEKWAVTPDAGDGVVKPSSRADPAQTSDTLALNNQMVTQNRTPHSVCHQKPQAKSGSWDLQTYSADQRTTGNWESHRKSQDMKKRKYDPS
# Paired box protein Pax-8 = Paired box protein Pax-8 (Homo sapiens, UniProt Q06710); test: inhibitors of PAX8-driven TPO luciferase reporter, dose response, RMG-I cells, cherry-pick (AID 687027); assay type: functional, cell-based;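 also: luciferase reporter driven by Pax8 target thyroperoxidase promoter measured by SteadyGlo luminescence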
# Streptococcus = test: Group A Streptococcus viability loss, dose response, counter-screen for streptokinase expression inhibitor project, luminescence, BacTiterGlo (AID 1915); assay type: functional, organism-based;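 also: potency for reduction of bacterial viability or growth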
# [14] = system: Streptococcus sp. 'group A'; test: growth inhibition of control SK(-) GAS strain, dose response, counter-screen for streptokinase expression inhibitor project, luminescence, kanamycin, BacTiterGlo, confirmation (AID 1900); assay type: functional, organism-based
# [15] = miR-122 activators in hepatoma reporter cells, dose response, cell-based, Huh7 psiCHECK-miR122, Renilla luciferase, cherry-picked (AID 651956); assay type: functional;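 also: huh7 hepatoma cells stably carrying a psiCHECK-2 miR-122 sensor plasmid; renilla luciferase signal reporting endogenous miR-122 activity after 48 h compound exposure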
# Sequence of Phospholipase A2 (P04054 whole entry): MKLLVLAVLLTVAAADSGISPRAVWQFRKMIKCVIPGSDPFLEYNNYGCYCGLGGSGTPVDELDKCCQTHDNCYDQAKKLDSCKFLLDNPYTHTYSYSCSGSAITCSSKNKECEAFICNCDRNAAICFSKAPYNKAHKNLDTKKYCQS
# Sequence of Genome polyprotein (P29990 2492-3391 limits assumed): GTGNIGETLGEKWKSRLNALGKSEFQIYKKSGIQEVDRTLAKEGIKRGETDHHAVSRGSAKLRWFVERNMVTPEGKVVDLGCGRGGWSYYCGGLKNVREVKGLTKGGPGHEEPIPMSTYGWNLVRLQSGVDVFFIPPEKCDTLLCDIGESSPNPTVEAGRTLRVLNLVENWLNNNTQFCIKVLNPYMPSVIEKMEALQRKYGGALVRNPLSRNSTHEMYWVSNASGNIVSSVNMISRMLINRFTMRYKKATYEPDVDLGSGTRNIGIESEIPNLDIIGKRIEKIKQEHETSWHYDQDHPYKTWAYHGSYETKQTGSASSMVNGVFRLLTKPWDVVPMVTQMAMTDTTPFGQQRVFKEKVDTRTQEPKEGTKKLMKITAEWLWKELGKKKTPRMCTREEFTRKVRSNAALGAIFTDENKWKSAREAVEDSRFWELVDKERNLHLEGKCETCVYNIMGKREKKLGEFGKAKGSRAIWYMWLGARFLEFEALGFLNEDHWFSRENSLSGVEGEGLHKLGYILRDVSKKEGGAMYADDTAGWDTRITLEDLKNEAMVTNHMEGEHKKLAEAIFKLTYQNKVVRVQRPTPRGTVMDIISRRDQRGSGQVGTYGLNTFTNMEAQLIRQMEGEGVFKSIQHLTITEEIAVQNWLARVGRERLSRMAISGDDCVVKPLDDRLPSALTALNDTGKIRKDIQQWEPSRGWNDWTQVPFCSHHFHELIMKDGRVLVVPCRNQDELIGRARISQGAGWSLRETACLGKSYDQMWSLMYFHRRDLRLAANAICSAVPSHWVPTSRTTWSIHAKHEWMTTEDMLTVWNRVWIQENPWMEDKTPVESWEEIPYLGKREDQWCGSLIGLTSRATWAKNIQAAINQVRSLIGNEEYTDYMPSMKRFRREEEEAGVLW
# Sequence of Beta Lactamase (Q932Y6 whole entry, the tested form may be a part): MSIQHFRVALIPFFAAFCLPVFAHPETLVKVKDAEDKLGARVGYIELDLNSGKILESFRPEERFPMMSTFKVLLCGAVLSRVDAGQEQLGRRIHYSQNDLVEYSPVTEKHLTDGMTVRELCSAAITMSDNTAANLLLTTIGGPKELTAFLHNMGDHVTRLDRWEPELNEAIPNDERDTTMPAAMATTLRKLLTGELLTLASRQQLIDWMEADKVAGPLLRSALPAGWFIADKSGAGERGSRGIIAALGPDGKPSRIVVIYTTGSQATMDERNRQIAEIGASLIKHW
# Sequence of Paired box protein Pax-8 (Q06710 whole entry): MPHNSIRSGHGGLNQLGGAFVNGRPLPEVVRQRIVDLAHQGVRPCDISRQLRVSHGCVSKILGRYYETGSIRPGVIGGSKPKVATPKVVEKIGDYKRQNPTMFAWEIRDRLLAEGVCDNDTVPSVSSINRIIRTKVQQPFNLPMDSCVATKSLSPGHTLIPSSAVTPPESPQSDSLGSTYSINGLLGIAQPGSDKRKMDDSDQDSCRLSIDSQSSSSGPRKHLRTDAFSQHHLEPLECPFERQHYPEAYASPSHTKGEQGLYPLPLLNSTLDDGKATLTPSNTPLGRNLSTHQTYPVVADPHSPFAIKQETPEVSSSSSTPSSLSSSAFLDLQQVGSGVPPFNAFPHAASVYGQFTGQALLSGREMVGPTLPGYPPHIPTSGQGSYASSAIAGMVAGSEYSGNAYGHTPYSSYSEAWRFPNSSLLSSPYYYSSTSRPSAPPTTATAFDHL
smiles,measurement,setting,value
Cc1ccc(-c2csc(NC(=O)c3ccccc3Cl)c2C(=O)O)cc1,IC50,[1],2.27 µM (active)
same,CC50,[2],19.4 µM (active)
same,IC50,[3],1.58 µM (active)
Cc1nc(N)c(C#N)c(-c2cccnc2)c1-c1ccccc1,IC50,Interleukin-8,> 79 µM (inactive)
CC(C)c1ccc(CNC(=O)CSCC(=O)Nc2ccc3ccccc3c2)cc1,AC50,[4],4.3 µM (active)
N#C/C(=C/c1ccc(N2CCOCC2)o1)c1ccc(Cl)cc1,CC50,[5],100 µM (active)
Cc1cccc(N2C(=O)/C(=C\c3ccc(OC(F)F)cc3)c3ccccc3C2=O)c1,AC50,[6],4.43 µM (active)
same,IC50,Beta Lactamase,3.9 µM (active)
same,IC50,CHO,40.4 µM (inactive)
O=C(O)c1ccccc1-c1ccc(C=C2C(=O)N(c3ccccc3)C(=S)N(c3ccccc3)C2=O)o1,EC50,[7],> 300 µM (not active)
same,EC50,[8],> 300 µM (not active)
same,IC50,[9],105 µM (active)
same,IC50,Genome polyprotein,12.3 µM (active)
O=C(Nc1cccc(Cl)c1N1CCCC1)c1cccc(-c2cc3ccccc3oc2=O)c1,AC50,[10],0.262 µM (active)
same,IC50,Cysteine protease ATG4B,0.87 µM (active)
same,IC50,Phospholipase A2,0.978 µM (active)
O=S(=O)(Nc1nc2ccccc2nc1N1CCc2ccccc2C1)c1ccc(Cl)cc1,IC50,Cysteine protease ATG4B,9.18 µM (active)
same,IC50,Phospholipase A2,10 µM (active)
COc1ccc(CC(=O)OCC(=O)Nc2ccc(Br)cc2)cc1,IC50,[11],83.3 µM (inactive)
COc1ccc(CCn2c(=N)c(C(=O)NCCN3CCOCC3)cc3c(=O)n4cccc(C)c4nc32)cc1OC,AC50,[12],6.24 µM (active)
CCCCCCCCCCCCCCCC[N+](C)(C)CCl,IC50,Cysteine protease ATG4B,8.42 µM (active)
same,AC50,[6],5.15 µM (active)
same,IC50,Phospholipase A2,8.15 µM (active)
same,AC50,[13],5.5 µM (active)
C=CC(=O)/N=c1\sc2ccccc2n1-c1ccccc1,IC50,[1],4.37 µM (active)
same,IC50,[3],1.78 µM (active)
same,AC50,Paired box protein Pax-8,1.6 µM (active)
O=C(N/N=C1/CCC/C1=C(/O)C(F)(F)F)c1ccccc1O,IC50,[1],2.27 µM (active)
same,EC50,Streptococcus,2.75 µM (active)
same,IC50,[3],3.57 µM (active)
same,EC50,[14],1.44 µM (active)
C/C=C/c1ccc2c(c1)O[C@H](CN(C)C(=O)Nc1cccc(F)c1)[C@H](C)CN([C@@H](C)CO)S2(=O)=O,AC50,[15],31.9 µM (active)
Cc1nccc2c1[nH]c1ccccc12 [HARMAN],AC50,[12],58.4 µM (active)
